From US20130143929A1, “FUNGICIDAL IMIDAZOLES” (EI DU PONT DE NEMOURS AND COMPANY, priority 2010, published 2013)
Marks after values point to notes of the source that are not given here.

How the values were obtained:
Format in all cases: in vivo
[1] = test system: Puccinia recondite f. sp. tritici (the causal agent of wheat leaf rust); assay: Test A: wheat leaf rust, preventive spray on wheat seedlings, visual disease rating; settings: for Test A rating (100 = 100% disease control, 0 = no disease control relative to the controls): wheat leaf rust, preventive spray on wheat seedlings; for Test A rating (% disease control, wheat leaf rust): 100 = 100% disease control
In short: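 Wheat seedlings were sprayed to run-off with compound suspended in acetone/water containing 250 ppm Trem 014 (200 ppm ≈ 800 g/ha; some at 40 ppm). Puccinia recondite spores were inoculated the next day. Plants were held 24 h saturated at 20° C, then 7 days at 20° C, and disease control was rated visually on a 0–100 scale against controls.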

[2] = test system: Septoria tritici (the causal agent of wheat leaf blotch); assay: Test B: wheat leaf blotch, preventive spray on wheat seedlings, visual disease rating; settings: for Test B rating (100 = 100% disease control, 0 = no disease control relative to the controls): wheat leaf blotch, preventive spray on wheat seedlings; for Test B rating (% disease control, wheat leaf blotch): 100 = 100% disease control
In short: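 Wheat seedlings sprayed to run-off with compound suspension (acetone/water with 250 ppm Trem 014; 200 ppm ≈ 800 g/ha, some at 40 ppm), inoculated next day with Septoria tritici spores. 48 h saturated humidity at 24 °C, then 19 days at 20 °C; visual rating, 100 = full control.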

[3] = test system: Botrytis cinerea (the causal agent of tomato Botrytis); assay: Test C: tomato Botrytis, preventive spray on tomato seedlings, visual disease rating; settings: for Test C rating (100 = 100% disease control, 0 = no disease control relative to the controls): tomato Botrytis, preventive spray on tomato seedlings; for Test C rating (% disease control, tomato Botrytis): 100 = 100% disease control
In short: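 Test suspension (acetone/water with 250 ppm Trem 014; 200 ppm equivalent to 800 g/ha) sprayed to run-off on tomato seedlings; B. cinerea spores inoculated next day. After 48 h saturated humidity at 20° C then 3 days at 24° C, disease rated visually as % control relative to untreated controls (0–100).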

[4] = test system: Blumeria graminis f. sp. tritici (also known as Erysiphe graminis f. sp. tritici, the causal agent of wheat powdery mildew); assay: Test D: wheat powdery mildew, preventive spray on wheat seedlings, visual disease rating; settings: for Test D rating (100 = 100% disease control, 0 = no disease control relative to the controls): wheat powdery mildew, preventive spray on wheat seedlings; for Test D rating (% disease control, wheat powdery mildew): 100 = 100% disease control
In short: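 Compound suspended in acetone/water (50/50) with 250 ppm Trem 014 and sprayed to run-off on wheat seedlings (200 ppm ≈ 800 g/ha), then inoculated next day with spore dust. Disease rated visually after 8 days at 20 °C as % control relative to untreated plants (0-100).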

[5] = asterisk: 40 ppm test suspension
[6] = no asterisk (standard test suspension concentration, not 40 ppm)
[7] = no asterisk: standard test suspension concentration, 0 = no control relative to controls
[8] = asterisk: 40 ppm test suspension, 0 = no control

SMILES | Test A rating (100 = 100% disease control, 0 = no disease control relative to the controls) [1, 5] | Test B rating (100 = 100% disease control, 0 = no disease control relative to the controls) [2, 5] | Test C rating (100 = 100% disease control, 0 = no disease control relative to the controls) [3, 5] | Test D rating (100 = 100% disease control, 0 = no disease control relative to the controls) [4, 5] | also measured
COc1cc(F)c(C(O)c2c(Cl)nc(C)n2-c2ccc(F)cc2Br)c(F)c1 (stereo not drawn) [compound 325] | 100* % | 98* % | 100* % | 92* % | –
Cc1nc(Br)c(C(O)c2ccc(F)cc2Cl)n1-c1c(F)cccc1Cl (stereo not drawn) [compound 188] | 100* % | 100* % | 99* % | 99* % | –
Cc1cc(F)ccc1C(O)c1c(Br)nc(C)n1-c1c(F)cccc1Cl (stereo not drawn) [compound 186] | 99* % | 100* % | 99* % | 97* % | –
Cc1nc(Cl)n(-c2ccc(F)cc2F)c1C(O)c1ccc(F)cc1Cl (racemic) [compound 35] | – | – | – | – | Test A rating (100 = 100% disease control, 0 = no disease control relative to the controls) [1, 6]: 100%; Test B rating (100 = 100% disease control, 0 = no disease control relative to the controls) [2, 6]: 100%; Test C rating (100 = 100% disease control, 0 = no disease control relative to the controls) [3, 6]: 100%; Test D rating (100 = 100% disease control, 0 = no disease control relative to the controls) [4, 6]: 68%
Cc1nc(Br)c(C(O)c2ccc(F)cc2Cl)n1-c1c(F)cccc1Br (stereo not drawn) [compound 134] | – | – | – | – | Test A rating (100 = 100% disease control, 0 = no disease control relative to the controls) [1, 6]: 100%; Test B rating (100 = 100% disease control, 0 = no disease control relative to the controls) [2, 6]: 100%; Test C rating (100 = 100% disease control, 0 = no disease control relative to the controls) [3, 6]: 100%; Test D rating (100 = 100% disease control, 0 = no disease control relative to the controls) [4, 6]: 98%
Cc1ccc(C(O)c2c(Cl)nc(C)n2-c2c(F)cccc2F)c(F)c1 (stereo not drawn) [compound 55] | 100* % | 100* % | 98* % | 98* % | –
COc1cc(F)c(C(O)c2cnc(C)n2-c2ccc(F)cc2F)c(F)c1 (racemic) [compound 257] | – | – | – | – | Test A rating (100 = 100% disease control, 0 = no disease control relative to the controls) [1, 6]: 92%; Test B rating (100 = 100% disease control, 0 = no disease control relative to the controls) [2, 6]: 24%; Test C rating (100 = 100% disease control, 0 = no disease control relative to the controls) [3, 6]: 0%; Test D rating (100 = 100% disease control, 0 = no disease control relative to the controls) [4, 6]: 0%
Cc1cc(F)ccc1C(O)c1c(Br)nc(C)n1-c1ccc(F)cc1Br (stereo not drawn) [compound 173] | – | – | – | – | Test A rating (100 = 100% disease control, 0 = no disease control relative to the controls) [1, 6]: 99%; Test B rating (100 = 100% disease control, 0 = no disease control relative to the controls) [2, 6]: 100%; Test C rating (100 = 100% disease control, 0 = no disease control relative to the controls) [3, 6]: 16%; Test D rating (100 = 100% disease control, 0 = no disease control relative to the controls) [4, 6]: 48%
Cc1cc(C#N)ccc1C(O)c1c(Br)nc(C)n1-c1c(F)cccc1F (stereo not drawn) [compound 165] | 80* % | 100* % | 8* % | 13* % | –
COc1ccc(C(O)c2c(Br)nc(C)n2-c2c(F)cccc2F)c(F)c1 (stereo not drawn) [compound 53] | 100* % | 100* % | 99* % | 43* % | –
COc1ccc(C(O)c2c(Cl)nc(C)n2-c2ccc(F)cc2Br)c(Cl)c1 (stereo not drawn) [compound 333] | 95* % | 72* % | 99* % | 86* % | –
Cc1nc(Cl)n(-c2ccc(Cl)cc2Cl)c1C(O)c1c(F)ccc(Br)c1Cl (racemic) [compound 37] | – | – | – | – | Test A rating (100 = 100% disease control, 0 = no disease control relative to the controls) [1, 6]: 98%; Test B rating (100 = 100% disease control, 0 = no disease control relative to the controls) [2, 6]: 100%; Test C rating (100 = 100% disease control, 0 = no disease control relative to the controls) [3, 6]: 91%; Test D rating (100 = 100% disease control, 0 = no disease control relative to the controls) [4, 6]: 21%
Cc1nc(Br)c(C(O)c2cccnc2F)n1-c1c(F)cc(F)cc1F (stereo not drawn) [compound 414] | – | – | – | – | Test A rating (% disease control, wheat leaf rust) [1, 7]: 100%; Test B rating (% disease control, wheat leaf blotch) [2, 7]: 100%; Test C rating (% disease control, tomato Botrytis) [3, 7]: 67%; Test D rating (% disease control, wheat powdery mildew) [4, 7]: 13%
COc1ccc(C(O)c2c(Br)nc(C)n2-c2c(F)cccc2Cl)c(F)c1 (racemic) [compound 275] | 100* % | 100* % | 100* % | 99* % | –
COc1ccc(C(O)c2c(Br)nc(C)n2-c2c(F)cc(F)cc2Br)c(Cl)c1 (stereo not drawn) [compound 351] | 100* % | 100* % | 90* % | 95* % | –
Cc1nc(Br)c(C(O)c2ccc(C#N)cc2F)n1-c1ccc(F)cc1Br (stereo not drawn) [compound 326] | 99* % | 90* % | 30* % | 0* % | –
Cc1nc(Cl)n(-c2c(F)cccc2F)c1C(O)c1ccc(F)cc1F (racemic) [compound 26] | 100* % | 100* % | 100* % | 99* % | –
Cc1ncc(C(O)c2ccc(Cl)cc2Cl)n1-c1c(F)cc(Cl)cc1F (stereo not drawn) [compound 112] | 74* % | 100* % | 0* % | 0* % | –
Cc1ncc(C(O)c2c(F)cc(F)cc2F)n1-c1c(Cl)cccc1Cl (racemic) [compound 227] | – | – | – | – | Test A rating (100 = 100% disease control, 0 = no disease control relative to the controls) [1, 6]: 84%; Test B rating (100 = 100% disease control, 0 = no disease control relative to the controls) [2, 6]: 83%; Test C rating (100 = 100% disease control, 0 = no disease control relative to the controls) [3, 6]: 40%; Test D rating (100 = 100% disease control, 0 = no disease control relative to the controls) [4, 6]: 0%
Cc1ccc(C(O)c2c(Br)nc(C)n2-c2c(F)cccc2F)c(C)c1 (stereo not drawn) [compound 145] | 100* % | 100* % | 51* % | 98* % | –
OC(c1ccc(F)cc1F)c1c(Br)ncn1-c1c(F)cc(Cl)cc1F (stereo not drawn) [compound 119] | 98* % | 100* % | 97* % | 0* % | –
COc1cc(F)c(-n2c(C)nc(Br)c2C(O)c2ccc(F)cc2C)c(F)c1 (stereo not drawn) [compound 391] | – | – | – | – | Test A rating (% disease control, wheat leaf rust) [1, 8]: 99* %; Test B rating (% disease control, wheat leaf blotch) [2, 8]: 100* %; Test C rating (% disease control, tomato Botrytis) [3, 8]: 0* %; Test D rating (% disease control, wheat powdery mildew) [4, 8]: 0* %
COc1ccc(C(O)c2c(Cl)nc(C)n2-c2c(F)cc(F)cc2Cl)c(Cl)c1 (stereo not drawn) [compound 350] | 100* % | 100* % | 98* % | 98* % | –
Cc1cc(F)ccc1C(O)c1c(Cl)nc(Cl)n1-c1ccc(F)cc1Cl (single isomer, unassigned) [compound 51] | – | – | – | – | Test A rating (100 = 100% disease control, 0 = no disease control relative to the controls) [1, 6]: 100%; Test B rating (100 = 100% disease control, 0 = no disease control relative to the controls) [2, 6]: 100%; Test C rating (100 = 100% disease control, 0 = no disease control relative to the controls) [3, 6]: 99%; Test D rating (100 = 100% disease control, 0 = no disease control relative to the controls) [4, 6]: 47%
